The values that follow come from patent US8785468B2, “Phenylalanine amide derivatives useful for treating insulin-related diseases and conditions” (Amgen Inc., priority 2009, dated 2014).

Where a name gives a salt, the structure may show the parent alone. Bounds are passed on as bounds.

In the experiment the target is T1, human receptor found in pancreatic islet cells (Homo sapiens, UniProt Q7Z601).
T1 sequence (Q7Z601 1-462): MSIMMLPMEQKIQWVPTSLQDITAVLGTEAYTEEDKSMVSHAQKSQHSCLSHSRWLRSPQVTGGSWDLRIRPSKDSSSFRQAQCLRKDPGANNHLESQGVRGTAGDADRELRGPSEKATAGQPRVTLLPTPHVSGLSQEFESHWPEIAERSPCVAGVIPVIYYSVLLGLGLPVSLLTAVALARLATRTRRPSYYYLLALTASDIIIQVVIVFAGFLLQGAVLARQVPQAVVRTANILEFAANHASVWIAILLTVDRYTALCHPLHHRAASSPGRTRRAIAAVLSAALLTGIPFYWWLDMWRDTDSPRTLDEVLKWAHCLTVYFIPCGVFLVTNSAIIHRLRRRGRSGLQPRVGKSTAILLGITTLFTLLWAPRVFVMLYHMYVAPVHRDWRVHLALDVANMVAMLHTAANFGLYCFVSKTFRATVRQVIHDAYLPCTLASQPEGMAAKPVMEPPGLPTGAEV
Briefly: Activation of intracellular IP3 signaling in transfected cells (Activation Assay). It counts as cell-based. Particulars: calculated from IP3 concentration measurements in cells transfected with the human receptor. The method, then:
Table 12 provides exemplary compounds that were prepared and assessed, following protocols known to those of skilled in the art, for activation of intracellular inositol trisphosphate (IP3) signaling pathways that lead to elevation of intracellular calcium concentration. EC50 values provided in Table 12 were calculated from IP3 concentration measurements in cells transfected with a human receptor found in pancreatic islet cells, inter alia.
For `COC(=O)c1cc(-c2ccncc2)cc2c1CCN2C(=O)[C@@H](N)Cc1ccccc1` [Example 54.1, (S)-Methyl 1-(2-amino-3-phenylpropanoyl)-6-(pyridin-4-yl)indoline-4-carboxylate], the EC50 is 0.1 to 1 µM.

With `COC(=O)c1cc(-c2ccncc2)cc2c1CCN2C(=O)[C@H](Cc1ccccc1)N[C@@H](C)c1ccccn1` [Example 54.2, Methyl 1-((S)-3-phenyl-2-((S)-1-(pyridin-2-yl)ethylamino)propanoyl)-6-(pyridin-4-yl)indoline-4-carboxylate TFA salt], the EC50 was 0.1 to 1 µM.

For `COC(=O)c1cc(-c2ccncc2)cc2c1CCN2C(=O)[C@H](Cc1ccccc1)NCc1cscn1` [Example 54.3, (S)-Methyl 1-(3-phenyl-2-(thiazol-4-ylmethylamino)propanoyl)-6-(pyridin-4-yl)indoline-4-carboxylate], the EC50 was 0.05 to 0.1 µM.

For `COC(=O)c1cc(-c2ccncc2)cc2c1CCN2C(=O)[C@H](Cc1ccccc1)NCc1cc[nH]n1` [Example 54.4, (S)-Methyl 1-(2-((1H-pyrazol-3-yl)methylamino)-3-phenylpropanoyl)-6-(pyridin-4-yl)indoline-4-carboxylate], the EC50 was 0.05 to 0.1 µM.

Consider `COC(=O)c1cc(-c2ccncc2)cc2c1CCN2C(=O)[C@H](Cc1ccc(F)cc1)NCc1cscn1` [Example 54.5, (S)-Methyl 1-(3-(4-fluorophenyl)-2-(thiazol-4-ylmethylamino)propanoyl)-6-(pyridin-4-yl)indoline-4-carboxylate], for which the EC50 is 0.05 to 0.1 µM.

On to `COC(=O)c1cc(-c2ccncc2)cc2c1CCN2C(=O)[C@H](Cc1ccc(F)cc1)NCc1cc[nH]n1` [Example 54.6, (S)-Methyl 1-(2-((1H-pyrazol-3-yl)methylamino)-3-(4-fluorophenyl)propanoyl)-6-(pyridin-4-yl)indoline-4-carboxylate], for which the EC50 is 0.05 to 0.1 µM.

As for `COC(=O)c1cc(-c2ccncc2)cc2c1CCN2C(=O)[C@H](Cc1ccc(F)cc1)NCc1ccccn1` [Example 54.7, (S)-Methyl 1-(3-(4-fluorophenyl)-2-(pyridin-2-ylmethylamino)propanoyl)-6-(pyridin-4-yl)indoline-4-carboxylate], the EC50 was 0.05 to 0.1 µM.

On to `COC(=O)c1cc(-c2ccncc2)cc2c1CCN2C(=O)[C@H](Cc1ccccc1)NCc1cscn1` [Example 54.8, TFA salt], for which the EC50 is 0.1 to 1 µM.

`CN(C)C(=O)c1cc(NC(=O)[C@H](Cc2ccccc2)NCc2cscn2)cc(-c2ccncc2)c1` [Example 55, (S)—N,N-Dimethyl-3-(3-phenyl-2-(thiazol-4-ylmethylamino)propanamido)-5-(pyridin-4-yl)benzamide]: the EC50 was 0.1 to 1 µM.

With `Cc1cc(-c2ccc3c(c2)N(C(=O)[C@H](Cc2ccccc2)NCc2cscn2)CC3)ccn1` [Example 56, (2S)-1-(6-(2-Methylpyridin-4-yl)indolin-1-yl)-3-phenyl-2-(thiazol-4-ylmethylamino)propan-1-one], the EC50 is 0.05 to 0.1 µM.

As for `O=C([C@H](Cc1ccccc1)NCc1cscn1)N1CCc2c(-c3n[nH]c(=O)o3)cc(-c3ccncc3)cc21` [Example 57, (S)-5-(1-(3-Phenyl-2-(thiazol-4-ylmethylamino)propanoyl)-6-(pyridin-4-yl)indolin-4-yl)-1,3,4-oxadiazol-2(3H)-oneTFA salt], the EC50 is 0.05 to 0.1 µM.

In the case of `O=C([C@H](Cc1ccccc1)NCc1cscn1)N1CCc2c(-c3n[nH]c(=S)o3)cc(-c3ccncc3)cc21` [Example 58, (S)-3-Phenyl-1-(6-(pyridin-4-yl)-4-(5-thioxo-4,5-dihydro-1,3,4-oxadiazol-2-yl)indolin-1-yl)-2-(thiazol-4-ylmethylamino)propan-1-one], the EC50 is below 0.05 µM.

For `NC(=O)c1cc(-c2ccncc2)cc2c1CCN2C(=O)[C@H](Cc1ccccc1)NCc1cscn1` [Example 60, (S)-1-(3-Phenyl-2-(thiazol-4-ylmethylamino)propanoyl)-6-(pyridin-4-yl)indoline-4-carboxamide], the EC50 is 0.1 to 1 µM.
